Experimental data published in patent US8455544B2, “Synthetic triterpenoids and methods of use in the treatment of disease” (Reata Pharmaecuticals, Inc., priority 2008, dated 2013).

Experiments:
RAW264.7 macrophages = assay: Cell viability, WST-1 reagent; type: cell-based; conditions: Mus musculus, RAW264.7 (20 ng/ml IFNγ)
[1] = Serum creatinine in toxicology study, monkeys; type: in vivo, cynomolgus monkeys; conditions: oral, once daily for 28 days
Description: (§1) FIGS. 3a-d—RTA 402 reduces serum creatinine levels in monkeys, dogs, and rats. (FIG. 3a) Cynomolgus monkeys were administered RTA 402 orally at the indicated doses once daily for 28 days. The percent reduction of serum creatinine on Day 28 in RTA 402-treated monkeys relative to vehicle-treated control monkeys is shown. (FIG. 3b) RTA 402 was administered orally to beagle dogs at the indicated doses daily for three months. Control animals received vehicle (sesame oil). The percent change in serum creatinine at the three-month time point relative to baseline is shown. (FIG. 3c) Sprague-Dawley rats were administered RTA 402 orally at the indicated doses once daily for a period of one month. The percent reduction of serum creatinine at study completion in RTA 402-treated rats relative to vehicle-treated control rats is shown. (FIG. 3d) Sprague-Dawley rats were administered the amorphous form of RTA 402 orally at the indicated doses once daily for a period of three months. The percent reduction of serum creatinine at study completion in RTA 402-treated rats relative to vehicle-treated control rats is shown. […] For example, a reading of −15 on this axis indicates a 15% reduction in serum creatinine.
(§2) Serum creatinine has been measured in several animal species treated with RTA 402 in the course of toxicology studies. […]

[2] = Serum creatinine in toxicology studies, rats; type: in vivo, Sprague-Dawley rats; conditions: oral, once daily, one month (crystalline) or three months (amorphous form)
Description: as §1, §2

patients with cancer = assay: Phase I clinical trial in patients with cancer (solid tumor study): serum creatinine, eGFR; type: in vivo, human
Description: FIGS. 4A-B—RTA 402 reduces serum creatinine levels and increases the estimated glomerular filtration rate (eGFR) in human patients with cancer. FIG. 4A: Serum creatinine was measured in RTA 402-treated patients enrolled in a Phase I clinical trial for the treatment of cancer. The patients were administered RTA 402 (p.o.) once daily for 21 days at doses ranging from 5 to 1,300 mg/day. The percent reduction of serum creatinine relative to baseline levels is shown for the indicated study days. Significant decreases in serum creatinine levels were observed on Days 15 and 21. FIG. 4B: The estimated glomerular filtration rate (eGFR) was calculated for the patients in FIG. 4A. […] All patients: n=24; patients with baseline ≧1.5: n=5. For FIGS. 4A and 4B, * indicates p≦0.04; † indicates p=0.01, and ‡ indicates p≦0.01. Note: in FIG. 4A, “% Reduction from Baseline” on the vertical axis indicates percent change. For example, a reading of −15 on this axis indicates a 15% reduction in serum creatinine.
FIG. 5—RTA 402 increases GFR in human patients with cancer. Estimated glomerular filtration rate (eGFR) was measured in RTA 402-treated patients enrolled in a multi-month clinical trial for the treatment of cancer. All patients (n=11) dosed through six months were included in the analysis. The dosing information for these patients is provided in Example 5, below.
Serum creatinine has also been measured in patients with cancer enrolled in a Phase I clinical trial of RTA 402. These patients received RTA 402 once daily at doses from 5 to 1,300 mg/day for a total of twenty-one days every 28 days. A reduction in serum creatinine by greater than 15% was observed as early as eight days following treatment initiation and persisted through the end of the cycle (FIG. 4A). This reduction was maintained in those patients that received six or more cycles of treatment with RTA 402. […] In these patients, serum creatinine levels decreased progressively throughout the cycle such that the Day 21 levels were approximately 25% lower than baseline levels (FIG. 4A).
Some of these patients were enrolled in the Phase I study, whereas others were enrolled in a study of RTA 402 (in combination with gemcitabine) in patients with pancreatic cancer.

For `COC(=O)[C@]12CCC(C)(C)C[C@H]1[C@H]1C(=O)C=C3[C@@]4(C)C=C(C#N)C(=O)C(C)(C)[C@@H]4CC[C@@]3(C)[C@]1(C)CC2` [RTA 402, methyl-2-cyano-3,12-dioxooleana-1,9-dien-28-oic acid], the IC50 (RAW264.7 macrophages) was 80 nM, the “Serum creatinine levels relative to control animals” value [1] was “Significant reductions” and the “Serum creatinine levels relative to control animals” value [2] was “Significant reductions”. For the same molecule, the “Reduction in serum creatinine” value (patients with cancer; 5 to 1,300 mg/day once daily for 21 days every 28 days, as early as eight days following treatment initiation) was “greater than 15%”, the “Serum creatinine lower than baseline levels” value (patients with cancer; Day 21, subset with baseline serum creatinine of at least 1.5 mg/dl) was “approximately 25%” and the “Estimated glomerular filtration rate (eGFR)” value (patients with cancer; Phase I patients, 21 days) was “significantly improved”. It also gave an eGFR (patients with cancer; Pt 402, dose 5 mg, cycle 1 (28 days each), BL 109.7) of 109.7, an eGFR (patients with cancer; Pt 402, dose 5 mg, cycle 2, BL 109.7) of 109.7 and an eGFR (patients with cancer; Pt 402, dose 5 mg, cycle 3, BL 109.7) of 95.7. The eGFR (patients with cancer; Pt 402, dose 5 mg, cycle 4, BL 109.7) was 95.7, the eGFR (patients with cancer; Pt 402, dose 5 mg, cycle 5, BL 109.7) was 109.7 and the eGFR (patients with cancer; Pt 402, dose 5 mg, cycle 6, BL 109.7) was 95.7. For the same molecule, the eGFR (patients with cancer; Pt 406, dose 80 mg, cycle 1, BL 94.2) was 125.9, the eGFR (patients with cancer; Pt 406, dose 80 mg, cycle 2, BL 94.2) was 107.9 and the eGFR (patients with cancer; Pt 406, dose 80 mg, cycle 3, BL 94.2) was 107.9. It also gave an eGFR (patients with cancer; Pt 406, dose 80 mg, cycle 4, BL 94.2) of 125.9, an eGFR (patients with cancer; Pt 406, dose 80 mg, cycle 5, BL 94.2) of 107.9 and an eGFR (patients with cancer; Pt 406, dose 80 mg, cycle 6, BL 94.2) of 125.9. The eGFR (patients with cancer; Pt 408, dose 150 mg, cycle 1, BL 73.2) was 82.1, the eGFR (patients with cancer; Pt 408, dose 150 mg, cycle 2, BL 73.2) was 77.4 and the eGFR (patients with cancer; Pt 408, dose 150 mg, cycle 3, BL 73.2) was 69.4. For the same molecule, the eGFR (patients with cancer; Pt 408, dose 150 mg, cycle 4, BL 73.2) was 77.4, the eGFR (patients with cancer; Pt 408, dose 150 mg, cycle 5, BL 73.2) was 77.4 and the eGFR (patients with cancer; Pt 408, dose 150 mg, cycle 6, BL 73.2) was 87.4. For the same molecule, the eGFR (patients with cancer; Pt 409, dose 150/300 mg, cycle 1, BL 48.4) was 62.6, the eGFR (patients with cancer; Pt 409, dose 150/300 mg, cycle 2, BL 48.4) was 62.6 and the eGFR (patients with cancer; Pt 409, dose 150/300 mg, cycle 3, BL 48.4) was 62.6. For the same molecule, the eGFR (patients with cancer; Pt 409, dose 150/300 mg, cycle 4, BL 48.4) was 57.0, the eGFR (patients with cancer; Pt 409, dose 150/300 mg, cycle 5, BL 48.4) was 69.2 and the eGFR (patients with cancer; Pt 409, dose 150/300 mg, cycle 6, BL 48.4) was 69.2. For the same molecule, the eGFR (patients with cancer; Pt 410, dose 300/600 mg, cycle 1, BL 49.9) was 69.6, the eGFR (patients with cancer; Pt 410, dose 300/600 mg, cycle 2, BL 49.9) was 63.4 and the eGFR (patients with cancer; Pt 410, dose 300/600 mg, cycle 3, BL 49.9) was 63.4. It also gave an eGFR (patients with cancer; Pt 410, dose 300/600 mg, cycle 4, BL 49.9) of 69.6, an eGFR (patients with cancer; Pt 410, dose 300/600 mg, cycle 5, BL 49.9) of 63.4 and an eGFR (patients with cancer; Pt 410, dose 300/600 mg, cycle 6, BL 49.9) of 69.6. The eGFR (patients with cancer; Pt 421, dose 1300/900 mg, cycle 1, BL 52.5) was 58.6, the eGFR (patients with cancer; Pt 421, dose 1300/900 mg, cycle 2, BL 52.5) was 66.2 and the eGFR (patients with cancer; Pt 421, dose 1300/900 mg, cycle 3, BL 52.5) was 75.8. It also gave an eGFR (patients with cancer; Pt 421, dose 1300/900 mg, cycle 5, BL 52.5) of 88.4, an eGFR (patients with cancer; Pt 421, dose 1300/900 mg, cycle 6, BL 52.5) of 75.8 and an eGFR (patients with cancer; Pt 427, dose 1300 mg, cycle 1, BL 70.1) of 101.3. It also gave an eGFR (patients with cancer; Pt 427, dose 1300 mg, cycle 2, BL 70.1) of 78.3, an eGFR (patients with cancer; Pt 427, dose 1300 mg, cycle 3, BL 70.1) of 88.4 and an eGFR (patients with cancer; Pt 427, dose 1300 mg, cycle 4, BL 70.1) of 101.3. For the same molecule, the eGFR (patients with cancer; Pt 427, dose 1300 mg, cycle 5, BL 70.1) was 101.3, the eGFR (patients with cancer; Pt 427, dose 1300 mg, cycle 6, BL 70.1) was 101.3 and the “% Serum Creatinine Decrease from Baseline” value (patients with cancer; all patients, n=45, Day 21) was −18.3%. The “% of Patients with Decrease on Day 21 (serum creatinine)” value (patients with cancer; all patients, n=45, drug for at least 3 weeks) was 87%, the “% of Patients with Decrease on Day 21 (serum creatinine)” value (patients with cancer; sub-set with elevated baseline serum creatinine levels, n=8) was 100% and the “% Serum Creatinine Decrease from Baseline” value (patients with cancer; sub-set with elevated baseline serum creatinine levels, n=8, Day 21) was −24.5%.
